Results on 44 molecules are retold here after ChEMBL document CHEMBL1143081, “Identification of 1S,2R-milnacipran analogs as potent norepinephrine and serotonin transporter inhibitors” (Bioorg Med Chem Lett, 2008).

The target in series [1] is Sodium-dependent dopamine transporter (Homo sapiens, UniProt Q01959).
Series [2] has as its target Sodium-dependent serotonin transporter (Homo sapiens, UniProt P31645).
Series [3] has as its target Sodium-dependent noradrenaline transporter (Homo sapiens, UniProt P23975).
A short description of series [4]: Metabolic stability in human liver microsomes assessed as systemic clearance. In kind it is ADME, Microsome. For orientation: Liver microsomes are a subcellular fraction often used to study metabolism.
The nature of series [5]: physchem.
Description: Dissociation constant, pKa of the compound
A short description of series [6]: Partition coefficient, log P of the compound. Format: physicochemical. The conditions noted are these: octanol/water.
Series [7] can be described thus: Lipophilicity, Log D of the compound. Format: physicochemical. The conditions noted are these: octanol/water.
Series [8] in a line: Apparent permeability across human Caco-2 cells. In kind it is ADME, cell-based. For orientation: Caco-2 cells form a polarised layer with tight junctions and transporters.
Series [9] in a line: Renal clearance in human. In kind it is ADME, organism-based, Kidney. The following applies: in vivo, read-out: CL_renal.
Series [10] is described as follows: clinical. The following applies: human, in vivo, po.
Description: Oral bioavailability in human
Series [11] in a line: Elimination half life in human. Format: ADME, organism-based. The following applies: in vivo.

As usually defined, the IC50 is the concentration needed to halve the response being measured. The low end stands for higher potency, the high end for lower potency. The term pKa denotes the pH at which an ionisable group is half protonated. Higher therefore signals a group that holds its proton tightly. The logP is the decadic logarithm of the partition coefficient of the neutral form, usually between octanol and water. The term logD denotes the decadic logarithm of the distribution of all forms, ionised or not, between an organic phase and buffer at a given pH. Low values mean lower lipophilicity, high ones higher lipophilicity. A word on the Papp: it is a coefficient for how fast a substance crosses the barrier. The bioavailability is the share of a dose that reaches the circulation, judged against a reference dose that is usually intravenous. A high value points to good availability. What is called half-life is the time in which the quantity being followed falls by half. The low end stands for rapid decline, the high end for slow decline.

A value given as a limit tells only on which side of the number the result lay.

Sequence of Sodium-dependent dopamine transporter (Q01959 whole entry): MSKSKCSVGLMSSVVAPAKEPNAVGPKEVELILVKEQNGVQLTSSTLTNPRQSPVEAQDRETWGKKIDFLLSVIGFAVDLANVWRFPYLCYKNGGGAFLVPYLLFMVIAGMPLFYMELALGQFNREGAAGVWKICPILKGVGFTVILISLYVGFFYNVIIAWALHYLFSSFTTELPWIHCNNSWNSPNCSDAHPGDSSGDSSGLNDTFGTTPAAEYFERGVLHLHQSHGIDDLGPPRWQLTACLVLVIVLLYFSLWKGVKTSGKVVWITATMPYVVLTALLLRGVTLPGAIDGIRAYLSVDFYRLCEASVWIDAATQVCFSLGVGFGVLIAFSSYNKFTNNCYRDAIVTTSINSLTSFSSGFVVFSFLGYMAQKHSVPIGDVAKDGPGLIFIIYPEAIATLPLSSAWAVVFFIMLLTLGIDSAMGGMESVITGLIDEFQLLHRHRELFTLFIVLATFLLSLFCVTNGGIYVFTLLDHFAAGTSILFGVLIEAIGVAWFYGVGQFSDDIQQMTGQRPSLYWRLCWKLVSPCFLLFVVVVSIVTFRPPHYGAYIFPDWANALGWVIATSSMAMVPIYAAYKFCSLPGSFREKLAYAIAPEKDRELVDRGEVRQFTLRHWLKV
Sequence of Sodium-dependent serotonin transporter (P31645 whole entry): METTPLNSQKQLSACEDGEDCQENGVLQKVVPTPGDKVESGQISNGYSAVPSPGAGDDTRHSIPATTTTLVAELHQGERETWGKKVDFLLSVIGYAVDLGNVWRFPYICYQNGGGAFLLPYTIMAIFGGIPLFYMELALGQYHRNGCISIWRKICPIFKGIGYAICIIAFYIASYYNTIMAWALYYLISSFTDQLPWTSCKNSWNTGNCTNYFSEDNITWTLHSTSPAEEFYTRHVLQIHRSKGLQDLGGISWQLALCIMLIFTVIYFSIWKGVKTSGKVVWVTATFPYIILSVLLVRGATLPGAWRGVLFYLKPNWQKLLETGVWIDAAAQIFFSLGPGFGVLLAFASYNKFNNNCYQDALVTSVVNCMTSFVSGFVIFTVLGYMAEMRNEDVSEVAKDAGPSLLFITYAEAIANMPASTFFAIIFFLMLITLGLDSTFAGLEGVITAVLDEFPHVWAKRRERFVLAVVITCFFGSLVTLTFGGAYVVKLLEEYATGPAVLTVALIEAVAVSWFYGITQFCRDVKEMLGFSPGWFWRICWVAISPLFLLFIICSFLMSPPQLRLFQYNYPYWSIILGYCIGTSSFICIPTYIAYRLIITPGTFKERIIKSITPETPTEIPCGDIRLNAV
Sequence of Sodium-dependent noradrenaline transporter (P23975 whole entry): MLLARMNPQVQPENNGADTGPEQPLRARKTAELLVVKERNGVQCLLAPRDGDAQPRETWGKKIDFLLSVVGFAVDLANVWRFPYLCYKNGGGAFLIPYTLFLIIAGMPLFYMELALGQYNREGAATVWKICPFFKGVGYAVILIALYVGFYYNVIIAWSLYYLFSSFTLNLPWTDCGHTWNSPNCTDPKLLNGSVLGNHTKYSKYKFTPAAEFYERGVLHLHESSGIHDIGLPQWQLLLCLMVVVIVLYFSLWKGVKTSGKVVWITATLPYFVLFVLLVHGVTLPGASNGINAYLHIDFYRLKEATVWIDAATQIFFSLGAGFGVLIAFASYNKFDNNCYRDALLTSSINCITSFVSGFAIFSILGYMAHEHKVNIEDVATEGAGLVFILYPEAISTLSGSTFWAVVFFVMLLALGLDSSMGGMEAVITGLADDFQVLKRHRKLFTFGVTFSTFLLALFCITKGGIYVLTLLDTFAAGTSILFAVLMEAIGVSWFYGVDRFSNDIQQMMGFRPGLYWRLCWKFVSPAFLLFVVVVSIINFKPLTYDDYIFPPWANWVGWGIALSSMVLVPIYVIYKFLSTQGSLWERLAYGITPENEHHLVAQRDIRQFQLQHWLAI

Consider `CCN(CC)C(=O)[C@@]1(c2ccc3sccc3c2)C[C@H]1CN`, for which the IC50 worked out at 1300 nM in series [1], 1100 nM in series [2] and 47 nM in [3].

As for `C=CCN(CC=C)C(=O)[C@@]1(c2ccc3c(c2)OCCO3)C[C@H]1CN`, the IC50 in [1] amounted to 6300 nM; in [2], 32 nM; in [3], 3.5 nM. The CLhep predicted in series [4] is 8.1 mL/min/kg.

Regarding `C=C(F)CN(C)C(=O)[C@@]1(c2ccc3c(c2)OCCO3)C[C@H]1CN`, the figures for the IC50 in series [1], in series [2] and in series [3] were more than 10000 nM, 100 nM and 8.1 nM, respectively.

Take `C#CCN(C(=O)[C@@]1(c2ccc3c(c2)OCCO3)C[C@H]1CN)C1CC1`: the IC50 is more than 10000 nM in series [1], 160 nM in series [2] and 4.4 nM in series [3].

Consider `C=CCN(CC)C(=O)[C@@]1(c2ccc3c(c2)CCO3)C[C@H]1CN`, for which the values for the IC50 in [1], in series [2] and in series [3] were more than 10000 nM, 430 nM and 18 nM, respectively.

`CCN(CC)C(=O)[C@@]1(c2ccc3occc3c2)C[C@H]1CN`: the IC50 in series [1] is more than 10000 nM; in series [2], 280 nM; in series [3], 47 nM.

Take `C#CCN(CC(=C)F)C(=O)[C@@]1(c2ccc3c(c2)OCCO3)C[C@H]1CN`: the IC50 in series [1] is more than 10000 nM; in series [2], 54 nM; in series [3] it was 4 nM.

For `C=CCN(CC=C)C(=O)[C@@]1(c2ccc3c(c2)OCO3)C[C@H]1CN`, the values for the IC50 in [1], in [2] and in [3] were more than 10000 nM, 58 nM and 7 nM, respectively.

`C#CCN(CC)C(=O)[C@@]1(c2ccc3c(c2)OCCO3)C[C@H]1CN`: the IC50 was more than 10000 nM in series [1], 125 nM in series [2] and 5.9 nM in [3].

Turning to `C=CCN(CC#CC)C(=O)[C@@]1(c2ccc3c(c2)OCO3)C[C@H]1CN`, the results for the IC50 in [1], in [2] and in [3] were more than 10000 nM, 64 nM and 15 nM, respectively.

For `CCN(CC)C(=O)[C@@]1(c2ccc3c(c2)OCO3)C[C@H]1CN`, the IC50 in series [1] was more than 10000 nM; in series [2], 480 nM; in series [3], 12 nM. This molecule displayed a pKa in series [5] of 9.6. Moreover, the logP in series [6] worked out at 1.7. This molecule also had a logD in series [7] of 0.4. Moreover, in series [8], the Papp came to 4.7 ×10⁻⁶ cm/s. For the same molecule, the CLhep predicted in [4] was 7.9 mL/min/kg.

For `NC[C@@H]1C[C@@]1(C(=O)N1CCc2ccccc2C1)c1ccc2c(c1)OCO2`, the figures for the IC50 in series [1], in series [2] and in [3] were 3600 nM, 26 nM and 6.5 nM, respectively.

Regarding `CCN(CC)C(=O)[C@@]1(c2ccc3c(c2)OCCO3)C[C@H]1CN`, the IC50 in [1] is more than 10000 nM; in series [2], 140 nM; in series [3], 6.3 nM. Also, the CLhep predicted in [4] was 4.4 mL/min/kg.

Turning to `C#CCN(CC#C)C(=O)[C@@]1(c2ccc3c(c2)OCCO3)C[C@H]1CN`, the IC50 in [1] was more than 10000 nM; in series [2], 25 nM; in [3] it was 1.7 nM. Also, the Papp in [8] was 5.2 ×10⁻⁶ cm/s. In addition, the CLhep predicted in series [4] is 7.9 mL/min/kg.

In the case of `C=CCN(CCC)C(=O)[C@@]1(c2ccc3c(c2)CCO3)C[C@H]1CN`, the IC50 was more than 10000 nM in series [1], 1700 nM in series [2] and 21 nM in [3].

Take `CCN(CC)C(=O)[C@@]1(c2ccc3c(c2)CCO3)C[C@H]1CN`: the IC50 in series [1] was more than 10000 nM; in [2], 2100 nM; in series [3] it was 160 nM.

With `C=CCN(CC=C)C(=O)[C@@]1(c2ccc3c(c2)CCO3)C[C@H]1CN`, the IC50 was more than 10000 nM in [1], 270 nM in series [2] and 4.5 nM in [3].

Turning to `CCN(CC)C(=O)[C@@]1(c2cccc(F)c2)C[C@H]1CN`, the values for the IC50 in [1], in series [2] and in series [3] were more than 10000 nM, 370 nM and 73 nM, respectively.

For `C=CCN(CC(=C)F)C(=O)[C@@]1(c2ccc3c(c2)OCCO3)C[C@H]1CN`, the half-maximal inhibitory concentration (IC50) in series [1] was 2900 nM; in series [2], 39 nM; in series [3], 3.2 nM.

Consider `C#CCN(CC1CC1)C(=O)[C@@]1(c2ccc3c(c2)OCCO3)C[C@H]1CN`, for which the IC50 in series [1] is more than 10000 nM; in series [2] it was 210 nM; in series [3] it was 3.9 nM.

As to `C=C(F)CN(CC)C(=O)[C@@]1(c2ccc3c(c2)OCCO3)C[C@H]1CN`, the IC50 is more than 10000 nM in [1], 112 nM in [2] and 5.2 nM in series [3].

`CCN(CC)C(=O)[C@@]1(c2ccc3c(c2)CCC3)C[C@H]1CN`: the results for the IC50 in series [1], in series [2] and in series [3] were more than 10000 nM, 480 nM and 160 nM, respectively.

For `C=CCN(CC)C(=O)[C@@]1(c2ccc3c(c2)OCO3)C[C@H]1CN`, the results for the IC50 in [1], in series [2] and in series [3] were more than 10000 nM, 150 nM and 7.1 nM, respectively.

In the case of `CCN(CC1CC1)C(=O)[C@@]1(c2ccc3c(c2)OCCO3)C[C@H]1CN`, the figures for the IC50 in series [1], in series [2] and in series [3] were more than 10000 nM, 540 nM and 7.1 nM, respectively.

Take `C#CCN(CC#C)C(=O)[C@@]1(c2ccc3c(c2)OCO3)C[C@H]1CN`: the IC50 came to 4300 nM in series [1], 49 nM in [2] and 7.6 nM in [3].

In the case of `C#CCN(CC=C)C(=O)[C@@]1(c2ccc3c(c2)CCO3)C[C@H]1CN`, the values for the IC50 in series [1], in series [2] and in series [3] were more than 10000 nM, 130 nM and 14 nM, respectively.

`NC[C@@H]1C[C@@]1(C(=O)N1CCc2ccccc21)c1ccc2c(c1)OCO2`: the figures for the IC50 in series [1], in [2] and in series [3] were 640 nM, 28 nM and 4.2 nM, respectively.

In the case of `NC[C@@H]1C[C@@]1(C(=O)N1CCc2sccc2C1)c1ccc2c(c1)OCO2`, the IC50 is more than 10000 nM in series [1], 14 nM in series [2] and 9.4 nM in [3].

As to `C=CCN(CC#CC)C(=O)[C@@]1(c2ccc3c(c2)CCO3)C[C@H]1CN`, the IC50 is more than 10000 nM in [1], 210 nM in series [2] and 40 nM in [3].

Turning to `CC#CCN(CCC)C(=O)[C@@]1(c2ccc3c(c2)CCO3)C[C@H]1CN`, the IC50 was more than 10000 nM in [1], 460 nM in series [2] and 80 nM in [3].

Turning to `NC[C@@H]1C[C@@]1(C(=O)C1NCc2ccccc21)c1ccc2c(c1)OCO2` (stereo partly drawn), the IC50 in series [1] turned out to be 3600 nM; in [2], 77 nM; in series [3], 20 nM.

Consider `NC[C@@H]1C[C@@]1(C(=O)N1CCOc2ccccc21)c1ccc2c(c1)OCO2`, for which the IC50 was determined as 5100 nM in [1], 320 nM in series [2] and 5.8 nM in series [3].

As to `C#CCN(CC#C)C(=O)[C@@]1(c2ccc3c(c2)CCO3)C[C@H]1CN`, the values for the IC50 in [1], in series [2] and in [3] were more than 10000 nM, 145 nM and 17 nM, respectively.

With `C=CCN(CC)C(=O)[C@@]1(c2ccc3c(c2)OCCO3)C[C@H]1CN`, the values for the IC50 in [1], in series [2] and in series [3] were more than 10000 nM, 65 nM and 2.9 nM, respectively. Also, the CLhep predicted in series [4] was 8.8 mL/min/kg.

Regarding `C=CCN(CC)C(=O)C1(c2ccccc2)C(CN)C1c1ccccc1` (racemic), the IC50 in series [1] is more than 10000 nM; in [2] it was 3400 nM; in [3] it was more than 10000 nM.

Take `NCC1C(c2ccccc2)C1(C(=O)N1CCc2ccccc21)c1ccccc1` (racemic): the IC50 in series [1] is 4300 nM; in series [2] it was 560 nM; in [3] it was more than 10000 nM.

With `CCN(CC)C(=O)C1(c2ccccc2)C(CN)C1c1ccccc1` (racemic), the IC50 in series [1] was more than 10000 nM; in [2], 6400 nM; in series [3] it was more than 10000 nM.

For `CCN(CC)C(=O)C1(c2ccccc2)CC1CN` (racemic), the CL renal in series [9] turned out to be 350 mL/min. In series [7], this molecule yielded a logD of 0.

For the molecule `C=CCN(CC)C(=O)C1(c2ccccc2)C(CN)C1(C)C` (racemic), the IC50 in [1] was more than 10000 nM; in series [2] it was more than 10000 nM; in series [3] it was 6400 nM.

On to `CCN(CC)C(=O)C1(c2ccccc2)C(CN)C1(C)C` (racemic), for which the figures for the IC50 in series [1], in series [2] and in series [3] were 4500 nM, more than 10000 nM and more than 10000 nM, respectively.

Take `CCN(CC)C(=O)C1(c2ccccc2)CC1(C)CN` (racemic): the IC50 is more than 10000 nM in series [1], 6900 nM in series [2] and more than 10000 nM in series [3].

With `CC1(C)C(CN)C1(C(=O)N1CCc2ccccc21)c1ccccc1` (racemic), the IC50 in [1], in series [2] and in series [3] was more than 10000 nM throughout.

`CNCC[C@@H](Oc1ccccc1C)c1ccccc1` [ATOMOXETINE] returned a bioavailability in series [10] of 85%. Further, the logP in series [6] is 3.5. For the same molecule, the logD in series [7] stood at 0.8. Also, the half-life in series [11] is 8 h. Further, in series [4], the CLhep predicted was 14.3 mL/min/kg.

On to `CCN(CC)C(=O)[C@@]1(c2ccccc2)C[C@H]1CN` [LEVOMILNACIPRAN], for which, in series [6], the logP was found to be 1.6. In [7], this molecule yielded a logD of -0.2. Moreover, in series [4], the CLhep predicted is 5 mL/min/kg.
